Experimental data published in patent EP0255256A2, “Antibiotics produced by actinomadura parvosata” (SMITHKLINE BECKMAN CORPORATION, priority 1986, dated 1988).
In brackets after ≈: the same amount, converted by molar mass. Where two headings read alike, the source gives them in different places.

Experiments:
Assay type in all cases: cell-based
[1] = system: Staph. aureus 209P; assay: MIC, standard microtiter assay; conditions: Staphylococcus aureus; Staph. aureus 209P; Table VIII; read-out: MIC
Experimental: (§1) The in vitro minimal inhibitory concentration (MIC) of the AAJ-271 complex and its factors, and vancomycin were determined for a number of microorganisms using the standard microtite'r assay procedures. The results are shown in the following tables, each of which represents a different production run of the complex.
(§2) The in vitro minimal inhibitory concentration (MIC) and the in vitro minimal bactericidal concentration (MBC) of the AAJ-271 aglycones, pseudo-aglycone and vancomycin were determined for a number of microorganisms using the standard microtiter assay procedures.

[2] = system: Staph. aureus 2620; assay: MIC, standard microtiter assay; conditions: Staphylococcus aureus, Staph. aureus 2620, read-out: MIC
Experimental: as §1, §2

[3] = system: Staph. aureus 675; assay: MIC, standard microtiter assay; conditions: Staphylococcus aureus, Staph. aureus 675, read-out: MIC
Experimental: as §1, §2

[4] = system: Staph. aureus 910; assay: MIC, standard microtiter assay; conditions: Staphylococcus aureus; Staph. aureus 910; Table VIII; read-out: MIC
Experimental: as §1, §2

[5] = system: Staph. aureus HH127; assay: MIC, standard microtiter assay; conditions: Staphylococcus aureus, Staph. aureus HH127, read-out: MIC
Experimental: as §1, §2

[6] = system: Staph. epidermidis 2256; assay: MIC, standard microtiter assay; conditions: Staphylococcus epidermidis; Staph. epidermidis 2256; Table VIII; read-out: MIC
Experimental: as §1, §2

[7] = system: Staph. epidermidis 2265; assay: MIC, standard microtiter assay; conditions: Staphylococcus epidermidis, Staph. epidermidis 2265, read-out: MIC
Experimental: as §1, §2

[8] = system: Staph. epidermidis 2479; assay: MIC, standard microtiter assay; conditions: Staphylococcus epidermidis, Staph. epidermidis 2479, read-out: MIC
Experimental: as §1, §2

[9] = system: Staph. epidermidis 2588; assay: MIC, standard microtiter assay; conditions: Staphylococcus epidermidis; Staph. epidermidis 2588; Table VIII; read-out: MIC
Experimental: as §1, §2

[10] = system: Staph. haemolyticus 651; assay: MIC, standard microtiter assay; conditions: Staphylococcus haemolyticus, Staph. haemolyticus 651, read-out: MIC
Experimental: as §1, §2

[11] = system: Staph. saprophyticus 2657; assay: MIC, standard microtiter assay; conditions: Staphylococcus saprophyticus; Staph. saprophyticus 2657; Table VIII; read-out: MIC
Experimental: as §1, §2

[12] = system: Strep. faecalis 34358; assay: MIC, standard microtiter assay; conditions: Enterococcus faecalis, Strep. faecalis 34358, read-out: MIC
Experimental: as §1, §2

[13] = system: Strep. faecalis 657; assay: MIC, standard microtiter assay; conditions: Enterococcus faecalis, Strep. faecalis 657, read-out: MIC
Experimental: as §1, §2

[14] = system: Strep. pyogenes (Group A); assay: MIC, standard microtiter assay; conditions: Streptococcus pyogenes; Strep. pyogenes (Group A); Table VIII; read-out: MIC
Experimental: as §1, §2

[15] = system: Staph. aureus 209P vancomycin resistant mutant; assay: MIC, standard microtiter assay; conditions: Staphylococcus aureus, read-out: MIC in μg/ml
Experimental: as §2

[16] = system: Staph. epidermidis 2261; assay: MIC, standard microtiter assay; conditions: Staphylococcus epidermidis; Staph. epidermidis 2261; Table VIII; read-out: MIC
Experimental: as §2

[17] = system: Staph. aureus 2620; assay: MBC, standard assay procedures; conditions: Staphylococcus aureus, Staph. aureus 2620, read-out: MBC
Experimental: (§3) The in vitro minimal bactericidal concentration (MBC) of the AAJ-271 C, C2 and C3 factors and vancomycin were determined for a number of microorganisms using standard assay procedures.
as §2

[18] = system: Staph. aureus 675; assay: MBC, standard assay procedures; conditions: Staphylococcus aureus, Staph. aureus 675, read-out: MBC
Experimental: as §3, §2

[19] = system: Staph. aureus HH127; assay: MBC, standard assay procedures; conditions: Staphylococcus aureus, Staph. aureus HH127, read-out: MBC
Experimental: as §3, §2

[20] = system: Staph. epidermidis 2265; assay: MBC, standard assay procedures; conditions: Staphylococcus epidermidis, Staph. epidermidis 2265, read-out: MBC
Experimental: as §3, §2

[21] = system: Staph. epidermidis 2479; assay: MBC, standard assay procedures; conditions: Staphylococcus epidermidis, Staph. epidermidis 2479, read-out: MBC
Experimental: as §3, §2

[22] = system: Staph. haemolyticus 651; assay: MBC, standard assay procedures; conditions: Staphylococcus haemolyticus, Staph. haemolyticus 651, read-out: MBC
Experimental: as §3, §2

[23] = system: Strep. faecalis 34358; assay: MBC, standard assay procedures; conditions: Enterococcus faecalis, Strep. faecalis 34358, read-out: MBC
Experimental: as §3, §2

[24] = system: Strep. faecalis 657; assay: MBC, standard assay procedures; conditions: Enterococcus faecalis, Strep. faecalis 657, read-out: MBC
Experimental: as §3, §2

[25] = system: Staph. aureus 209P vancomycin resistant mutant; assay: MBC, standard assay procedures; conditions: Staphylococcus aureus, read-out: MBC in μg/ml
Experimental: as §2

[26] = system: Staph. aureus 209P; assay: MBC, standard assay procedures; conditions: Staphylococcus aureus; Staph. aureus 209P; Table VIII; read-out: MBC
Experimental: as §2

[27] = system: Staph. aureus 910; assay: MBC, standard assay procedures; conditions: Staphylococcus aureus; Staph. aureus 910; Table VIII; read-out: MBC
Experimental: as §2

[28] = system: Staph. epidermidis 2256; assay: MBC, standard assay procedures; conditions: Staphylococcus epidermidis; Staph. epidermidis 2256; Table VIII; read-out: MBC
Experimental: as §2

[29] = system: Staph. epidermidis 2261; assay: MBC, standard assay procedures; conditions: Staphylococcus epidermidis; Staph. epidermidis 2261; Table VIII; read-out: MBC
Experimental: as §2

[30] = system: Staph. epidermidis 2588; assay: MBC, standard assay procedures; conditions: Staphylococcus epidermidis; Staph. epidermidis 2588; Table VIII; read-out: MBC
Experimental: as §2

[31] = system: Staph. saprophyticus 2657; assay: MBC, standard assay procedures; conditions: Staphylococcus saprophyticus; Staph. saprophyticus 2657; Table VIII; read-out: MBC
Experimental: as §2

[32] = system: Strep. pyogenes (Group A); assay: MBC, standard assay procedures; conditions: Streptococcus pyogenes; Strep. pyogenes (Group A); Table VIII; read-out: MBC
Experimental: as §2

In the case of CN(C)C1C(=O)NC2Cc3ccc(cc3)Oc3cc4cc(c3O)Oc3ccc(cc3Cl)C(O)C3NC(=O)C(NC(=O)C4NC(=O)C(NC2=O)c2cc(cc(O)c2Cl)Oc2cc1ccc2O)c1ccc(O)c(c1)-c1c(O)cc(O)cc1C(C(=O)O)NC3=O (stereo not drawn) [Aglycone 2], the MIC [1] is reported as 0.4 µg/mL (≈ 0.326 µM), the MIC ([2]; Table VIII) is reported as 0.8 µg/mL (≈ 0.652 µM) and the MIC ([3]; Table VIII) is reported as 0.4 µg/mL (≈ 0.326 µM). For the same compound, the MIC [4] was 0.4 µg/mL (≈ 0.326 µM), the MIC ([5]; Table VIII) was 0.4 µg/mL (≈ 0.326 µM) and the MIC [6] was 0.8 µg/mL (≈ 0.652 µM). It also gave an MIC ([7]; Table VIII) of 0.8 µg/mL (≈ 0.652 µM), an MIC ([8]; Table VIII) of 0.8 µg/mL (≈ 0.652 µM) and an MIC [9] of 1.6 µg/mL (≈ 1.3 µM). For the same compound, the MIC ([10]; Table VIII) was 6.3 µg/mL (≈ 5.13 µM), the MIC [11] was 0.8 µg/mL (≈ 0.652 µM) and the MIC ([12]; Table VIII) was 1.6 µg/mL (≈ 1.3 µM). For the same compound, the MIC ([13]; Table VIII) was 1.6 µg/mL (≈ 1.3 µM), the MIC [14] was 1.6 µg/mL (≈ 1.3 µM) and the MIC [15] was 25 µg/mL (≈ 20.4 µM). For the same compound, the MIC [16] was 1.6 µg/mL (≈ 1.3 µM), the MBC ([17]; Table VIII) was 0.8 µg/mL (≈ 0.652 µM) and the MBC ([18]; Table VIII) was 0.4 µg/mL (≈ 0.326 µM). It also gave an MBC ([19]; Table VIII) of 0.4 µg/mL (≈ 0.326 µM), an MBC ([20]; Table VIII) of 0.8 µg/mL (≈ 0.652 µM) and an MBC ([21]; Table VIII) of 0.8 µg/mL (≈ 0.652 µM). For the same compound, the MBC ([22]; Table VIII) was 6.3 µg/mL (≈ 5.13 µM), the MBC ([23]; Table VIII) was over 50 µg/mL and the MBC ([24]; Table VIII) was 6.3 µg/mL (≈ 5.13 µM). For the same compound, the MBC [25] was 25 µg/mL (≈ 20.4 µM), the MBC [26] was 0.4 µg/mL (≈ 0.326 µM) and the MBC [27] was 0.4 µg/mL (≈ 0.326 µM). It also gave an MBC [28] of 0.8 µg/mL (≈ 0.652 µM), an MBC [29] of 1.6 µg/mL (≈ 1.3 µM) and an MBC [30] of 3.1 µg/mL (≈ 2.53 µM). It also gave an MBC [31] of 0.8 µg/mL (≈ 0.652 µM) and an MBC [32] of 0.8 µg/mL (≈ 0.652 µM).
With CNC1C(=O)NC2Cc3ccc(cc3)Oc3cc4cc(c3O)Oc3ccc(cc3Cl)C(O)C3NC(=O)C(NC(=O)C4NC(=O)C(NC2=O)c2cc(cc(O)c2Cl)Oc2cc1ccc2O)c1ccc(O)c(c1)-c1c(O[C@H]2O[C@H](CO)[C@@H](O)[C@H](O)[C@@H]2O)cc(O)cc1C(C(=O)O)NC3=O (stereo partly drawn) [AAJ 271 Pseudo-aglycone] the MIC ([2]; Table IX) was 3.1 µg/mL (≈ 2.25 µM), the MIC ([3]; Table IX) was 3.1 µg/mL (≈ 2.25 µM) and the MIC ([5]; Table IX) was 3.1 µg/mL (≈ 2.25 µM). The MIC ([7]; Table IX) was 12.5 µg/mL (≈ 9.09 µM), the MIC ([8]; Table IX) was 6.3 µg/mL (≈ 4.58 µM) and the MIC ([10]; Table IX) was 25 µg/mL (≈ 18.2 µM). It also gave an MIC ([12]; Table IX) of 3.1 µg/mL (≈ 2.25 µM), an MIC ([13]; Table IX) of 3.1 µg/mL (≈ 2.25 µM) and an MBC ([17]; Table IX) of 3.1 µg/mL (≈ 2.25 µM). It also gave an MBC ([18]; Table IX) of 3.1 µg/mL (≈ 2.25 µM), an MBC ([19]; Table IX) of 6.3 µg/mL (≈ 4.58 µM) and an MBC ([20]; Table IX) of 12.5 µg/mL (≈ 9.09 µM). The MBC ([21]; Table IX) was 6.3 µg/mL (≈ 4.58 µM), the MBC ([22]; Table IX) was 25 µg/mL (≈ 18.2 µM) and the MBC ([23]; Table IX) was 3.1 µg/mL (≈ 2.25 µM). It also gave an MBC ([24]; Table IX) of 3.1 µg/mL (≈ 2.25 µM).
